Assay results published in US20250127723A1, “PHARMACEUTICAL COMPOSITION COMPRISING LARGE PHYSIOLOGICALLY ACTIVE SUBSTANCE AND EXCIPIENT” (priority 2021, published 2025).
Structures can show the parent of a compound that is named as a salt. Bridge positions count the residues as written; N and C are the ends. Square brackets hold non-standard residues; d marks the D form. Side chains are listed from the residue outwards. Ends that are not written are not given here. Lys‑B1 = not defined here; EG2 = not defined here; Aib = CC(C)(N)C(=O)O

Experiments:
[1] = Body weight change 24 hours after single oral administration of amylin derivatives; assay type: in vivo; conditions: mice, bile acid absorption accelerator formulation
Protocol: After a single oral administration of a formulation using a combination of a large physiologically active substance and excipients to mice, body weight changes were confirmed for 24 hours.

Caco-2 cells = tested on: Caco-2 cells
Protocol: The cytotoxicity of excipients was evaluated using Caco-2 cells using the following method. First, to check the amount of intracellular accumulation, Caco-2 cells were distributed in a 96-well plate at 1×10^5 per well and cultured in a CO2 incubator at a temperature of 37° C. The culture solution from each well is removed and replacement by a new culture medium is performed. After that, […] of the prepared excipient was added and this was cultured in a CO2 incubator at 37° C. After 2 hours, each well was treated with 100 µL of luciferase reagent (Promega, #G7571) and incubated at room temperature. After 10 minutes, the luminescence value of each well was measured. […] [formula]

Caco-2 cell monolayer [2] = assay type: in vitro ADME
Protocol: Using the Caco-2 cell monolayer, changes in the permeability of markers for each permeation pathway due to excipients were evaluated using the following method. First, to form a Caco-2 cell monolayer, 1.5×10^5 cells per well were dispensed in a 12-Transwell plate and cultured for 3 to 4 weeks under 37° C. CO2 conditions. For the first week, the culture medium was changed once every two days, and thereafter, the culture medium was changed every three days. In the experiment, samples between 3 and 4 weeks after seeding were used. To verify the formation of a cell monolayer, TEER values and Lucifer yellow values were measured, and only cell monolayer membranes having a TEER value of 300 Ω·cm^2 or more and a measured transmittance of Lucifer yellow within 3% were used in the test. After the Transwells to be used for each test were washed using transport media (HBSS) and incubated in a 37° C. CO2 incubator for 1 hour, 500 μL of bile acid derivatives and permeability marker were added to the apical side, and 1.5 mL of drug-free transport media was treated onto the basolateral side, and incubation was performed for 2 hours in a 37° C. CO2 incubator thereafter. At this time, fluorescein isothiocyanate-dextran (FD4) was used as a paracellular marker, and metoprolol was used as a transcellular marker to confirm the change in permeability coefficient according to bile acid derivative treatment. […]

Caco-2 cell monolayer [3] = assay type: in vitro ADME; remark: listed apart in the source
Protocol: First, to form a Caco-2 cell monolayer, 1.5×10^5 cells per well were dispensed in a 12-Transwell plate and this was cultured for 3 to 4 weeks under 37° C. CO2 conditions. For the first week, the culture medium was changed once every two days, and thereafter, the culture medium was changed every three days. In the experiment, samples between 3 and 4 weeks after seeding were used. To verify the formation of a cell monolayer, TEER values and Lucifer yellow values were measured; only cell monolayer membranes having a TEER value of 300 Ω·cm^2 or more and a measured transmittance of Lucifer yellow within 3% were used in the test. After washing the Transwell to be used for each test using transport media (HBSS), incubation was performed for 1 hour in a 37° C. CO2 incubator; then, 500 μL each of large physiologically active substance (50 μM) and bile acid derivatives (100 μM) were added to the apical side, and 1.5 mL of drug-free transport media was treated onto the basolateral side. Subsequently, incubation was performed for 2 hours in a 37° C. CO2 incubator.
[formula] • (*dCr-concentration of the permeated sample, dt-drug treatment time, Vr-basolateral volume, A-Transwell area, C0-initial applied drug concentration)

[4] = Cmax after duodenal administration of Compounds 23 and 24; design: species or system experimental rats; conditions: rat, in vivo; rats, duodenum; CDC 68 mg/kg, PG 34 mg/kg; Compound 23 5.4 mg/kg, Compound 24 6.2 mg/kg
Protocol: A large physiologically active substance (Compound 24) was formulated by dissolving it in the corresponding vehicle (0.02% polysorbate 80 in 10 mM PBS (pH 7.4)) with the excipient composition shown in Table 6 above. After administering the above formulation to the duodenum of experimental rats, Cmax was compared. The corresponding results were compared with the results obtained by administering Compound 23, a large physiologically active substance without a biotin moiety, in the same formulation, and are shown in Table 7 below.

[5] = tested on: monolayer membrane of Caco-2 cells; assay: Tight junction openness by change in TEER value, Caco-2 monolayer; assay type: cell-based; conditions: apical treatment, 0-120 min, FIG. 2
Protocol: First, to form a Caco-2 cell monolayer, 1.5×10^5 cells per well was dispensed in a 12-Transwell plate and cultured for 3 to 4 weeks under 37° C. CO2 conditions. For the first week, the culture medium was changed once every two days, and thereafter, the culture medium was changed every three days. In the experiment, samples between 3 and 4 weeks after seeding were used. To evaluate the degree of damage to the Caco-2 cell monolayer by excipients, the degree of cells cultured as a monolayer on a semi-permeable membrane was measured by the difference in electrical resistance between the apical side and the basolateral side. First, the Transwell to be used in each test is washed using a washing buffer (HBSS), replaced by culture medium, and equilibrated in a 37° C. CO2 incubator for 15 minutes. After adding 500 μL of the prepared excipient to the apical side and treating the basolateral side with 1.5 mL of culture medium containing no excipient, changes in TEER values were measured using a Millicell ERS-2 Voltohmmeter at each time point (0, 5, 15, 30, 45, 60, 90, 120 min) from the time of treatment.

[6] = Weight loss, appetite suppression and anti-diabetic efficacy, oral Compound 17 formulation in obese mice; assay type: in vivo, mice (C57BL/6); conditions: high-fat diet obese C57BL/6 mice; Compound 17 300 to 1000 nmol/kg oral daily 3 weeks; CDC 6.8, UDC 13.6, PG 13.6 mg/mL; FIGS. 11 to 13
Protocol: After oral administration of a formulation containing a large physiologically active substance (Compound 17) and excipients to mice, changes in mouse body weight and anti-diabetic efficacy were confirmed. Specifically, the administered dose of Compound 17 used 300 to 1000 nmol/kg, and the excipient concentrations in the administered formulation used CDC 6.8 mg/mL, UDC 13.6 mg/mL, and PG 13.6 mg/mL. The vehicle used 0.02% polysorbate 80 in 10 mM PBS (pH 7.4). Obese mice were induced by feeding high-fat diet to 6-week-old male mice (C57BL/6) for 16 weeks; then weight changes were confirmed by oral administration of the GLP-1/Glucagon receptor dual agonist (Compound 17), which combines biotin and fatty acid moieties, every day for 3 weeks using a bile acid absorption accelerator formulation.

26: Amylin, SEQ No. 14: KCNTATCATQRLANFLVHSSNNFGPILPPTNVGSNTY; K1: Lys-B1 (K*) ([Lys‑B1]CNTATCATQRLANFLVHSSNNFGPILPPTNVGSNTY; ends and bridges not checked) [Compound 26]
body weight change after 24 hours [1]: weight loss was confirmed

27: Amylin, SEQ No. 14: KCNTATCATQRLANFLVHSSNNFGPILPPTNVGSNTY; K1: αLys-EG2-Glu-C18 (*K); K1: Lys-B1 (K*) ({C18-Glu-EG2}-[Lys‑B1]CNTATCATQRLANFLVHSSNNFGPILPPTNVGSNTY; not fully specified; ends and bridges not checked) [Compound 27]
body weight change after 24 hours [1]: weight loss was confirmed

29: Amylin, SEQ No. 15: KCNTATCATQRLADFLRHSSPNFGAIPSSTNVGSRTY; K1: Lys-B1 (K*) ([Lys‑B1]CNTATCATQRLADFLRHSSPNFGAIPSSTNVGSRTY; ends and bridges not checked) [Compound 29]
body weight change after 24 hours [1]: weight loss was confirmed

30: Amylin, SEQ No. 15: KCNTATCATQRLADFLRHSSPNFGAIPSSTNVGSRTY; K1: αLys-EG2-Glu-C18 (*K); K1: Lys-B1 (K*) ({C18-Glu-EG2}-[Lys‑B1]CNTATCATQRLADFLRHSSPNFGAIPSSTNVGSRTY; not fully specified; ends and bridges not checked) [Compound 30]
body weight change after 24 hours [1]: weight loss was confirmed

32: Amylin, SEQ No. 16: KCNTATCATQRLADFLRHSSNNFGAIPSSTNVGSRTY; K1: Lys-B1 (K*) ([Lys‑B1]CNTATCATQRLADFLRHSSNNFGAIPSSTNVGSRTY; ends and bridges not checked) [Compound 32]
body weight change after 24 hours [1]: weight loss was confirmed

33: Amylin, SEQ No. 16: KCNTATCATQRLADFLRHSSNNFGAIPSSTNVGSRTY; K1: αLys-EG2-Glu-C18 (*K); K1: Lys-B1 (K*) ({C18-Glu-EG2}-[Lys‑B1]CNTATCATQRLADFLRHSSNNFGAIPSSTNVGSRTY; not fully specified; ends and bridges not checked) [Compound 33]
body weight change after 24 hours [1]: weight loss was confirmed

35: Amylin, SEQ No. 17: RCNTATCATQRLADFLRHSSNNFGAIPSSTNVGSKTY; K35: Lys-B1 (K*) (RCNTATCATQRLADFLRHSSNNFGAIPSSTNVGS[Lys‑B1]TY; ends and bridges not checked) [Compound 35]
body weight change after 24 hours [1]: weight loss was confirmed

36: Amylin, SEQ No. 17: RCNTATCATQRLADFLRHSSNNFGAIPSSTNVGSKTY; R1: αArg-EG2-Glu-C18 (*R); K35: Lys-B1 (K*) ({C18-Glu-EG2}-RCNTATCATQRLADFLRHSSNNFGAIPSSTNVGSKTY; not fully specified (some residues); ends and bridges not checked) [Compound 36]
body weight change after 24 hours [1]: weight loss was confirmed

C[C@H](CCC(=O)O)[C@H]1CC[C@H]2[C@@H]3[C@H](O)C[C@@H]4C[C@H](O)CC[C@]4(C)[C@H]3CC[C@]12C [CDC, Chenodeoxycholic acid or its salt]
cytotoxicity (cell viability) (Caco-2 cells): similar | effect on paracellular (FD4) and transcellular (metoprolol) transport (Caco-2 cell monolayer [2]): promotes both paracellular transport and transcellular transport | effect of improving the permeability of large physiologically active substances (Caco-2 cell monolayer [3]): had an effect of improving the permeability

CC[C@H](C)[C@H](NC(=O)[C@H](CCC(=O)O)NC(=O)[C@H](CO)NC(=O)[C@@H](NC(=O)[C@@H](N)CO)C(C)C)C(=O)N[C@@H](CCC(N)=O)C(=O)N[C@@H](CC(C)C)C(=O)N[C@@H](CCSC)C(=O)N[C@@H](Cc1cnc[nH]1)C(=O)N[C@@H](CC(N)=O)C(=O)N[C@@H](CC(C)C)C(=O)NCC(=O)N[C@@H](CCCCN)C(=O)N[C@@H](Cc1cnc[nH]1)C(=O)N[C@@H](CC(C)C)C(=O)N[C@@H](CC(N)=O)C(=O)N[C@@H](CO)C(=O)N[C@@H](CCSC)C(=O)N[C@@H](CCC(=O)O)C(=O)N[C@@H](CCCN=C(N)N)C(=O)N[C@H](C(=O)N[C@@H](CCC(=O)O)C(=O)N[C@@H](Cc1c[nH]c2ccccc12)C(=O)N[C@@H](CC(C)C)C(=O)N[C@@H](CCCN=C(N)N)C(=O)N[C@@H](CCCCN)C(=O)N[C@@H](CCCCN)C(=O)N[C@@H](CC(C)C)C(=O)N[C@@H](CCC(N)=O)C(=O)N[C@@H](CC(=O)O)C(=O)N[C@H](C(=O)N[C@@H](Cc1cnc[nH]1)C(=O)N[C@@H](CC(N)=O)C(=O)N[C@@H](Cc1ccccc1)C(=O)O)C(C)C)C(C)C [Compound 23]
Cmax [4]: 30 ng/mL

C[C@H](CCC(=O)O)[C@H]1CC[C@H]2[C@@H]3CC[C@@H]4C[C@H](O)CC[C@]4(C)[C@H]3C[C@H](O)[C@]12C [DC, Deoxycholic acid or its salt]
cytotoxicity (cell viability) (Caco-2 cells): similar

CCCOC(=O)c1cc(O)c(O)c(O)c1 [PG, Propyl gallate]
tight junction openness according to the change in TEER value [5]: non-tight junction openness

C[C@H](CCC(=O)O)[C@H]1CC[C@H]2[C@@H]3[C@@H](O)C[C@@H]4C[C@H](O)CC[C@]4(C)[C@H]3CC[C@]12C [UDC, Ursodeoxycholic acid or its salt]
cytotoxicity (cell viability) (Caco-2 cells): least cytotoxicity | tight junction openness according to the change in TEER value [5]: non-tight junction openness | effect on paracellular (FD4) and transcellular (metoprolol) transport (Caco-2 cell monolayer [2]): no enhancing effect on the two transport mechanisms

Compound 17: GLP-1/GCGRA, SEQ No. 8: H-Aib-QGTFTSDYSKYLDEQAAKEFVQWLMNTK; (Lactam) between E16 and K20; K12: Lys-B1 (K*); K30: Lys-EG2-Glu-C18 (K*) (H-H[Aib]QGTFTSDYSKYLDEQAAKEFVQWLMNTK([EG2-Glu-C18]); lactam 16-20; not fully specified (residue 12); reading uncertain)
anti-diabetic efficacy [6]: anti-diabetic effect | body weight change [6]: weight loss | feed intake [6]: reduction of feed intake
